{
  "source": "patent US7722906B2",
  "about": "“Polyunsaturated fatty acid fractions of Nigella sativa L. seeds” (priority 2004, dated 2010)",
  "system": "writhing induced by parabenzoquinone",
  "experiment": "Analgesic activity, writhing method",
  "format": "in vivo, mice",
  "conditions": "5.0 mg/100 g.b.w.",
  "experimental": "The analgesic activity of the Nigella sativa L. polyunsaturated fatty acid fraction was studied using the writhing method described by Okun et al. (1963). Thirty mature mice of both sexes weighing from 20 to 25 gm were divided into 3 groups of 10 mice each. The first group served as a control and the second group served as a standard (treated with paracetamol in a dose of 5 mg/100 gm body weight). The third group was injected subcutaneously with the Nigella sativa L. polyunsaturated fatty acid fraction. […] […] Animals devoid of writhing in each group were recorded and the analgesic potencies of paracetamol and the Nigella sativa L. polyunsaturated fatty acid fraction were determined as percent protection against writhing.",
  "data": [
    {"molecule": "CC(=O)Nc1ccc(O)cc1", "note": "[Paracetamol, paracetamol]", "values": [
      {"measurement": "% Protection", "setting": "30 minutes", "value": 100, "unit": "%"},
      {"measurement": "% Protection", "setting": "60 minutes", "value": 60, "unit": "%"},
      {"measurement": "% Protection", "setting": "90 minutes", "value": 40, "unit": "%"},
      {"measurement": "% Protection", "setting": "120 minutes", "value": 20, "unit": "%"}
    ]}
  ]
}
